Measured values as given in publication PMC5776677 (Journal of medicinal chemistry, 2016).
Where a name gives a salt, the structure may show the parent alone.

Legend:
[1] = system: HBV; assay: Anti-HBV activity in HepG2; assay type: cell-based
[2] = assay type: physicochemical
[3] = system: HIV-1; assay: Anti-HIV-1 activity in HIV-infected PBMCs; conditions: for TI (CC50/EC50), HIV-1: HIV-1, PBMCs
[4] = Cytotoxicity in uninfected PBMCs; assay type: cell-based; conditions: human
[5] = Aqueous solubility; assay type: physicochemical
[6] = system: HIV-1; conditions: read-out: EC50 against HIV-1; cited from earlier work

Compound	TI (CC50/EC50), HBV [1]	TI (CC50/EC50), HIV-1 [3]	other results
C[C@H](Cn1cnc2c(N)ncnc21)OCP(=O)(O)OCCS [compound 6, 2-mercaptoethyl hydrogen ((((R)-1-(6-amino-9H-purin-9-yl)propan-2-yl)oxy)methyl)phosphonate]	>2	>5.38	stability in glycine/HCl buffer ([2]; pH 2.0, 0.1 M DTT, 37.4 °C): no observed decomposition; stability in PBS ([2]; pH 7.43, TFV appears as new signal): Moderate stability; decomposition in aqueous carbonate/bicarbonate buffer ([2]; pH 9.19, 0.1 M DTT, 37.4 °C): significant decomposition; time to complete consumption of starting material ([2]; pH 10.16): ≤ 8 min; fold less active than TFV against HIV-infected PBMCs ([3]; relative to TFV): 58 fold
CC(C)OC(=O)OCOP(=O)(CO[C@H](C)Cn1cnc2c(N)ncnc21)OCOC(=O)OC(C)C [TDF, tenofovir disoproxil fumarate]			CC50 [4]: 44 µM
CCCCCCCCCCCCCCCCSSCc1ccccc1COP(=O)(O)CO[C@H](C)Cn1cnc2c(N)ncnc21 [4b, (R)-2-((hexadecyldisulfanyl)methyl)benzyl (((1-(6-amino-9H-purin-9-yl)propan-2-yl)oxy)methyl)phosphonate]		>31800	
CCCCCCCCCCCCCCCCSSCCCCOP(=O)(O)CO[C@H](C)Cn1cnc2c(N)ncnc21 [2b, (R)-4-(hexadecyldisulfanyl)butyl (((1-(6-amino-9H-purin-9-yl)propan-2-yl)oxy)methyl)phosphonate]	>200	>100000	aqueous solubility [5]: poor aqueous solubility
6-(Dodecyldisulfanyl)hexyl Hydrogen ((((R)-1-(6-Amino-9H-purin-9-yl)propan-2-yl)oxy)methyl)phosphonate [5b]	>47	>7000	
CCCCCCCCCCCCCCCCOCCCOP(=O)(O)CO[C@H](C)Cn1cnc2c(N)ncnc21 [CMX-157, Hexadecyloxypropyl-9-R-[2-(Phosphonomethoxy)-Propyl]-Adenine]			EC50 [6]: 0.02 µM
CCCCCCCCCCCCCCCCSSCCOP(=O)(O)CO[C@H](C)Cn1cnc2c(N)ncnc21 [1b, 2-(hexadecyldisulfanyl)ethyl hydrogen ((((R)-1-(6-amino-9H-purin-9-yl)propan-2-yl)oxy)methyl)phosphonate]	> 1200		aqueous solubility [5]: poor aqueous solubility
C[C@H](Cn1cnc2c(N)ncnc21)OCP(=O)(O)O [TFV, tenofovir, reference compound]		>300	
C[C@H](Cn1cnc2c(N)ncnc21)OCP(=O)(O)OCCCCS [compound 7, 4-mercaptobutyl hydrogen ((((R)-1-(6-amino-9H-purin-9-yl)propan-2-yl)oxy)methyl)phosphonate]	> 1		stability in various aqueous buffers ([2]; all tested pH values, several hours at 37 °C): no detectable decomposition
